Patent US10017509B2, “Macrocylic pyrimidine derivatives” (Janssen Pharmaceutica NV, priority 2014, dated 2018)

How the values were obtained:
EF2K [1] = biological target: T1, EF2K (Homo sapiens, UniProt O00418); assay: Biochemical EF2K lysate-based kinase assay (AlphaLISA p-eEF2 Thr56); conditions: pIC50 = -log IC50 (M), read-out: eEF2K_C_alphalisa pIC50 (converted)
T1 construct: host or cells: LN-229 cell lysate
T1 sequence (O00418 1-725): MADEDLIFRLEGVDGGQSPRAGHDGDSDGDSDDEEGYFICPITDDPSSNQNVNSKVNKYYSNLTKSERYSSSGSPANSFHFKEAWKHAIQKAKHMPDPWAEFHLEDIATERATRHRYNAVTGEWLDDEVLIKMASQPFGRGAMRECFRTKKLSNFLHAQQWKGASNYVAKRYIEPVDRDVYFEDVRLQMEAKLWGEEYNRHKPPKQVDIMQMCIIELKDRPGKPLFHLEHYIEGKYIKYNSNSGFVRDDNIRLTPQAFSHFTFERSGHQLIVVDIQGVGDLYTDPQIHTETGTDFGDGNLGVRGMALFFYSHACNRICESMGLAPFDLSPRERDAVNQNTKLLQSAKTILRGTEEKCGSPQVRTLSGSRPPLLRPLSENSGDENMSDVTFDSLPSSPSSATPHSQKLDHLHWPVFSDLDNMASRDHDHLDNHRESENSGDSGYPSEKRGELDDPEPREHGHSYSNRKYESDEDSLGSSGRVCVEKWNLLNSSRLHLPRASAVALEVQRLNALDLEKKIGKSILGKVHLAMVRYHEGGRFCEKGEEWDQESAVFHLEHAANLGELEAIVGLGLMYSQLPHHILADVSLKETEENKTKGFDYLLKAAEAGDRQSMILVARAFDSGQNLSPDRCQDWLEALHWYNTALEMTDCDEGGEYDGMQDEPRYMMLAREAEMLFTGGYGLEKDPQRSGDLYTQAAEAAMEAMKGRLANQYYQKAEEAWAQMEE
From the text: Biochemical EF2K Lysate-Based Kinase Assay
LN-229 cells were purchased from ATCC (CRL-2611); these are glioblastoma cells. Cell lysates from LN229 were used in this kinase assay to provide both the kinase and the substrate (EF2). The AlphaLISA p-eEF2 (Thr56) detection assay was developed using a sandwich assay format with two specific antibodies recognizing different epitopes of the target, including one antibody against the phosphorylation site of interest. One anti-eEF2 antibody was conjugated onto AlphaLISA Acceptor beads, while the second antibody was biotinylated and captured by streptavidin coated Donor beads.
Compound was mixed with LN-229 cell lysates in the presence of a kinase buffer (e.g. HEPES) at a pH of 6.6, containing 10 mM Mg^2+ (e.g. magnesium acetate) and 10 mM adenosine-tri-phosphate (ATP) and incubated at room temperature for 15 minutes. The kinase reaction was stopped with excess ethylenediaminetetraacetic acid disodium salt and the biotinylated-anti phospho eEF2 antibody (3 nM) was added for 1 hour. Then the anti-EF2 acceptor beads (10 μg/ml) as well as the streptavidin coated donor beads (20 μg/ml) were added for 1 hour, and the AlphaLISA signal was measured in an Envision instrument once, left overnight, and measured again for the final read.
(§1) (pIC50 is −log IC50 where IC50 represents the concentration expressed in M at which the test compound gives 50% inhibition)

[2] = biological target: Vps34 (PIK3C3 lipid kinase) (Homo sapiens, UniProt Q8NEB9); assay: Biochemical Vps34 lipid kinase assay (ADP-Glo); conditions: for remaining activity at 1 µM: 1 h, read-out: VPS34_1microM_% of cntrl; for remaining activity at 1 µM / VPS34_1microM_% of cntrl: single dose 1 μM compound, residual activity compared to control (DMSO); for IC50: serial half-log dilution 10 μM to 0.3 nM, pIC50 = -log IC50 (M)
Sequence of Vps34 (PIK3C3 lipid kinase) (Q8NEB9 whole entry, species assumed): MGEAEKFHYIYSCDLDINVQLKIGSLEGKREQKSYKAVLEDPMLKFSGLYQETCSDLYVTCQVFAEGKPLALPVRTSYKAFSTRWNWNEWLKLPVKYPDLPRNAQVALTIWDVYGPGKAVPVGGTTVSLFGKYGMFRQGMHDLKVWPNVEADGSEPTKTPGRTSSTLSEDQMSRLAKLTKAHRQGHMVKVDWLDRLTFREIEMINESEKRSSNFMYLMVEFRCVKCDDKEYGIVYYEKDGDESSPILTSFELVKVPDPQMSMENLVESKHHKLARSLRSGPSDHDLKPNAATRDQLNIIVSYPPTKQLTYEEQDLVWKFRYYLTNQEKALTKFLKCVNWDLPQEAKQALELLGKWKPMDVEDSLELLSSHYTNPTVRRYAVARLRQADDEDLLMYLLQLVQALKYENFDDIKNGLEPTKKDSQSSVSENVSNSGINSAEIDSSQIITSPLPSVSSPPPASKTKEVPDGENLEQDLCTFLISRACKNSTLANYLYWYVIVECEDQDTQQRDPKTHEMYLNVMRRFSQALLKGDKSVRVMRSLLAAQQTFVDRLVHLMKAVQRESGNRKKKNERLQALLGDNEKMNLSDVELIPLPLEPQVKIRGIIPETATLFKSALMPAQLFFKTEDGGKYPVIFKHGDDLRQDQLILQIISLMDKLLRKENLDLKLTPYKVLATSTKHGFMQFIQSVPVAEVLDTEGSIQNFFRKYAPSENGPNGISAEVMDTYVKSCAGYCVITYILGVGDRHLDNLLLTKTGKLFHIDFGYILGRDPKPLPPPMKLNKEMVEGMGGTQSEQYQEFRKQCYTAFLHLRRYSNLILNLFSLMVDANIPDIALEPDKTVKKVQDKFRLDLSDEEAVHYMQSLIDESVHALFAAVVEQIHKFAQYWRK
Experimental: Biochemical Vps34 Lipid Kinase Assay
A non-radiometric kinase assay (ADP-Glo™ Assay, Promega, Madison, Wi, USA) was used for measuring the kinase activity of the PIK3C3 lipid kinase. All kinase assays were performed in 96-well half-area microtiter plates in a 25 μl reaction volume. The reaction cocktail was pipetted in 3 steps in the following order: • 10 μl of ATP solution (in assay buffer, see below) • 5 μl of test sample in 5% DMSO 10 μl of enzyme/substrate mixture
All lipid kinase assays contained 50 mM HEPES (4-(2-hydroxyethyl)-1-piperazineethanesulfonic acid)-NaOH, pH 7.5, 1 mM EGTA ((ethylene glycol tetraacetic acid), 100 mM NaCl, 0.03% CHAPS (3-[(3-Cholamidopropyl)dimethylammonio]-1-propanesulfonate), 2 mM DTT (Dithiothreitol), 20 μM ATP (corresponding to the apparent ATP-Km), kinase (7.6 nM) and substrate (50 μM). The assay for PIK3C3 additionally contained 3 mM MnCl2.
The reaction cocktails were incubated at 30° C. for 60 minutes. The reaction was stopped with 25 μl ADP-Go™ reagent per well. Plates were incubated for 40 minutes at room temperature, followed by addition of 50 μl kinase detection reagent per well and incubation for 60 minutes at room temperature. Signal was determined with a microplate luminescence reader (Victor, Perkin Elmer). The assay was either performed using a single dose of compound (1 μM final concentration in the assay reaction) with resulting data expressed as residual activity compared to control (DMSO), or using a serial (half-log) dilution of compounds starting at 10 μM and down to 0.3 nM (final concentrations in the assay) with data expressed as the pIC50.
as §1

EF2K [3] = biological target: T1, EF2K; assay: EF2K cell-based assay (P-EF2 AlphaLISA, 2-deoxyglucose stimulated MCF10A cells); conditions: 2.5 mM 2-deoxyglucose stimulated, P-EF2 Thr56, pIC50 = -log IC50 (M); for IC50: read-out: eEF2K_C_PThr56 pIC50 (converted)
Experimental: In this assay, 2.5 mM 2-deoxyglucose was used to deplete intracellular ATP and activate 5′ adenosine monophosphate-activated protein kinase (AMPK) in the immortalized epithelial breast cell lines, MCF10A. MCF 10A cells were purchased from ATCC (CRL-10317).
MCF10A cells are seeded at a density of 1.25×10^5 Cells/ml at 100 μl/well in a 96-well plate and incubated for 24 hours (37° C., 5% CO2). Compound is added for 1 hour, and cell are stimulated with 2.5 mM of 2-deoxy-glucose for 4 hours. Medium is then removed, and cells are lysed in an ice-cold buffer M-PER (Thermo Scientific, 78501), containing protease and phosphatase inhibitors. P-EF2 levels are determined in these lysates using the P-EF2 AlphaLISA described above.
as §1

Compound	IC50 (EF2K [1]) [M]	remaining activity at 1 µM [2] [%]	IC50 [2] [M]	IC50 (EF2K [3]) [M]	VPS34_1microM_% of cntrl [2]	eEF2K_C_PThr56 pIC50 (EF2K [3])
CN1CCN(C)c2ccc(cn2)-c2ccnc(n2)Nc2ccc(O)c(c2)CN2CCN(CC2)CC1=O [Compound 131]	4.57e-07	17.3	1.74e-07	7.59e-06		
CN1CCCN(C)c2ccc(cn2)-c2ccnc(n2)Nc2cccc(c2)CN2CCN(CC1=O)CC2COCCN1CCOCC1 (stereo not shown) [Compound 98]	1.48e-07	33.9		2.75e-05		
CN1CCN(C)c2ccc(cn2)-c2ccnc(n2)Nc2cccc(c2)CN2CCNC(CC1=O)C2 (stereo not shown) [Compound 72]	3.8e-06	11.5	3.02e-07	> 3.02e-05		
CN1CCCN(C)c2ccc(cn2)-c2ccnc(n2)Nc2cccc(c2)CN2CCN(CC1=O)CC2CO (single isomer, unassigned) [Compound 53]	3.39e-08		2.75e-07		13.15 % of cntrl	<4.52
CN1CCCN(C)c2ccc(cn2)-c2ccnc(n2)Nc2cccc(c2)CN2CCC(CC2)CC1=O [Compound 81]	2.4e-06	26.4	8.91e-07	1.82e-05		
O=C1CN2CCN(CC2)Cc2cccc(c2)Nc2nccc(n2)-c2ccc(nc2)CN(CC2CCOCC2)CCN1 [Compound 39]	1.2e-06	30.7		3.09e-06		
CC1CN2CCN1Cc1cccc(c1)Nc1nccc(n1)-c1ccc(nc1)N(C)CCCN(C)C(=O)C2 (stereo not shown) [Compound 58]	1.17e-07	15.9	4.27e-07	2.09e-06		
O=C1CN2CCN(CC2)Cc2cccc(c2)Nc2nccc(n2)-c2ccc(nc2)N2CCCC2CN1 (stereo not shown) [Compound 26]	1.48e-05		1.02e-07	> 3.02e-05	5.23 % of cntrl	
CN1CCCN(C)c2ccc(cn2)-c2ccnc(n2)Nc2cccc(c2)CN2CCN(CC1=O)CC2COCCN1CCOCC1 (single isomer, unassigned) [Compound 99]	2.4e-06		1.51e-06	> 3.02e-05		
CN1CCCN(C)c2ccc(cn2)-c2ccnc(n2)Nc2cccc(c2)CN2CCCN(CC2)CC1=O [Compound 57]	2.57e-06		2.95e-07	> 3.02e-05		
CN1CCCN(C)c2ccc(cn2)-c2ccnc(n2)Nc2cccc(c2)CC2CCN(CC2)CC1=O [Compound 109]	1.35e-06	14.7	2.88e-07	> 3.02e-05		
CN1CCCN(C)c2ccc(cc2)-c2ccnc(n2)Nc2cccc(c2)CN2CCN(CC1=O)C(C(=O)OCc1ccccc1)C2 (stereo not shown) [Compound 92]	8.91e-08	38.3		> 3.02e-05		

Other lines, results leading:

IC50 (EF2K [1]) [M]	remaining activity at 1 µM [2] [%]	IC50 [2] [M]	IC50 (EF2K [3]) [M]	VPS34_1microM_% of cntrl [2]	eEF2K_C_PThr56 pIC50 (EF2K [3])	Compound
> 3.02e-05	24.3	6.03e-07	> 3.02e-05			O=C1CC2CCN(CC2)Cc2cccc(c2)Nc2nccc(n2)-c2ccc(nc2)NCCCN1 [Compound 79]
3.72e-06	19.2	3.55e-07	> 3.02e-05			CN1CCCNc2ccc(cn2)-c2ccnc(n2)Nc2cccc(c2)CN2CCN(CC1=O)C(=O)C2 [Compound 127]
> 3.02e-05	21	2.4e-07	> 3.02e-05			O=C1NCCCNc2ccc(cn2)-c2ccnc(n2)Nc2cccc(c2)CN2CCN1CC2 [Compound 130]
1.66e-07	10.8	3.31e-07	5.62e-06			O=C1NCCCNc2ccc(cn2)-c2ccnc(n2)Nc2cccc(c2)CN2CCN(CC2)C1CO (stereo not shown) [Compound 65]
7.08e-08	3.37	1.05e-07	7.59e-06			N#Cc1ccc2cc1CN1CCN(CC1)CC(=O)NCCCNc1ccc(cn1)-c1ccnc(n1)N2 [Compound 14]
2.82e-06	7.65	1.66e-07	4.47e-06			O=C1CNCCNc2ccc(cn2)-c2ccnc(n2)Nc2cccc(c2)CN2CCN1CC2 [Compound 113]
1.1e-06	23.6	5.01e-07	8.71e-06			CC(C)N1CCNc2ccc(cn2)-c2ccnc(n2)Nc2cccc(c2)CN2CCN(CC2)CC1=O [Compound 21]
1.74e-07	4.95	7.59e-08	> 3.02e-05			NC(=O)C1CN2CCN1CC(=O)NCCCNc1ccc(cn1)-c1ccnc(n1)Nc1cccc(c1)C2 (stereo not shown) [Compound 126]
3.98e-07	9	8.71e-08	6.76e-06			CNC(=O)c1ccc2cc1CN1CCN(CC1)CC(=O)NCCCNc1ccc(cn1)-c1ccnc(n1)N2 [Compound 13]
9.12e-07	4.02	8.51e-08	> 3.02e-05			N#CCCN1CCCNC(=O)CN2CCN(Cc3cccc(c3)Nc3nccc(n3)-c3ccc1nc3)C(CO)C2 (stereo not shown) [Compound 54]
8.51e-08	10.2	3.02e-07	2.4e-06			O=C1CN2CCN(CC2)Cc2cccc(c2)Nc2nccc(n2)-c2ccc(nc2)CN(C(=O)C2CC2)CCN1 [Compound 44]
8.32e-08	29.3	4.79e-07	8.71e-06			O=C1CN2CCN(CC2)Cc2cccc(c2F)Nc2nccc(n2)-c2ccc(nc2)NCCCN1 [Compound 4]
1.45e-07		1.66e-08	~8.51e-06	3.08 % of cntrl		CC1CN2CCN1CC(=O)NCCCNc1ccc(cn1)-c1ccnc(n1)Nc1cccc(c1)C2 (single isomer, unassigned) [Compound 136]
7.76e-06	14	4.47e-07	> 3.02e-05			O=C1CN2CCN(CC2)S(=O)(=O)c2cccc(c2)Nc2nccc(n2)-c2ccc(nc2)NCCCN1 [Compound 116]
5.75e-07	3.56	3.89e-08	> 3.02e-05			NC(=O)C1CN2CCN1Cc1cccc(c1)Nc1nccc(n1)-c1ccc(nc1)NCCCNC(=O)C2 (stereo not shown) [Compound 59]
